Broadly, the IC50 is the concentration needed to halve the response being measured.

One test deals with T1, BRISC (Homo sapiens, UniProt P46736+Q15018).
T1 construct: made in house; host or cells: insect cells (MultiBac baculovirus)
As to the kind of experiment: BRISC DUB inhibition assay with quenched K63-linked di-ubiquitin substrate (TAMRA fluorescence). The format is biochemical. Conditions: Table 1, Activity Range Table. The method, then: High throughput screening. A baculoviral expression system was established to purify milligram quantities of the entire BRISC complex from insect cells. The MultiBac system was used to clone all 4 components of the BRISC complex into one vector which was then packaged into the baculovirus genome using the methods described in Zeqiraj et al., 2015 (Mol. Cell).
The assay buffer included: 50 mM HEPES-NaOH, pH 7.0; 100 mM NaCl; 1 mM DTT; 1 mg/ml BSA; and 0.03% Brij-35. BRISC was assayed at 1 nM (final concentration) with the substrate at 500 nM (final concentration). The final reaction volume was 20 μl in each 384 plate well (Corning, #3573; black, low flange, flat bottom) with a final concentration of compounds of 10 μM.
A 5 ml of enzyme solution with BRISC at 2 nM in assay buffer was made by adding 10 μl of BRISC working stock (1 μM) to 5 ml of assay buffer. A 5 ml of substrate solution was made with […] of K63-diUbiquitin (made in-house) plus […] of IQF K63-diUbiquitin by adding the appropriate volumes of diUbiquitins to 5 ml of assay buffer. 45 μL of BRISC (enzyme solution) was dispensed into columns 1-11 of a 96 well PCR plate (skirted). Buffer was only dispensed in column 12 (no enzyme control). 45 μl of substrate solution was dispensed into columns 1-12 of a 96 well PCR plate (skirted). The plate was spun down at 3000 rpm (bench top centrifuge) at room temp for 2 min to remove any air bubbles. Using a Biomek FX, liquid handler (Bekman), 10 μl of BRISC (enzyme solution) was dispensed into the 4 quadrants of a 384 well plate. 200 nl of compounds was dispensed into each well of the 384 plates using the pin tool (columns A and B usually contain DMSO only, and serve as controls), and the plates were incubated for 10-15 minutes at room temperature. 10 μl of substrate solution was dispensed into the 4 quadrants of the 384 well plate. The plate was then incubated for 30 min at room temperature in the dark and read with settings suitable for detecting TAMRA fluorescence (excitation wavelength of 540 nm and emission wavelength of 580 nm). A PHERAStar plate (BMG labtech) reader was used with a gain value of 570. The Intensity/Background (I/Bg), defined as [(Average of columns 1 and 2; DMSO controls)/(Average of columns 23 and 24; no enzyme controls)], were about 5.
The activities of the compounds disclosed in the present disclosure in inhibiting BRCC36 enzyme activity was measured in accordance with the method disclosed in Example 2.
With `O=C(NC1CCNCC1)c1nn(S(=O)(=O)c2ccccc2Cl)cc1NC(=O)c1c(Cl)cccc1Cl` [Compound 25], the IC50 lay within 50 to 300 µM.

Compound `O=C(NC1CCNCC1)c1nn(S(=O)(=O)c2ccc(Cl)cc2)cc1NC(=O)c1c(Cl)cccc1Cl` [Compound 4] showed an IC50 of 1 to 10 µM.

In turn, `CC1CNCCC1NC(=O)c1nn(C(=O)c2c(Cl)cccc2Cl)cc1NC(=O)c1c(Cl)cccc1Cl` (stereo not shown) [Compound 12] came in with an IC50 of 1 to 10 µM.

`NCCCNC(=O)c1nn(C(=O)c2c(Cl)cccc2Cl)cc1NC(=O)c1c(Cl)cccc1Cl` [Compound 10] gave an IC50 of 1 to 10 µM.

Compound `CN1CCC(NC(=O)c2nn(C(=O)c3c(Cl)cccc3Cl)cc2NC(=O)c2c(Cl)cccc2Cl)CC1` [Compound 37] showed an IC50 of 1 to 10 µM.

In turn, `O=C(NC1CCNCC1)c1nn(C(=O)Nc2cccc(Cl)c2)cc1NC(=O)c1c(Cl)cccc1Cl` [Compound 36] showed an IC50 of 50 to 300 µM.

`C[N+]1(C)CCC(NC(=O)c2nn(C(=O)c3c(Cl)cccc3Cl)cc2NC(=O)c2c(Cl)cccc2Cl)CC1` [Compound 29] showed an IC50 of 10 to 50 µM.

`O=C(NC1CCNCC1)c1nn(S(=O)(=O)c2ccccc2)cc1NC(=O)c1c(Cl)cccc1Cl` [Compound 5] came in with an IC50 of 10 to 50 µM.

The compound `O=C(N[C@@H]1CCNC1)c1nn(C(=O)c2c(Cl)cccc2Cl)cc1NC(=O)c1c(Cl)cccc1Cl` [Compound 8] came in with an IC50 of 1 to 10 µM.

`CN(C(=O)c1nn(C(=O)c2c(Cl)cccc2Cl)cc1NC(=O)c1c(Cl)cccc1Cl)C1CCNCC1` [Compound 11] registered an IC50 of 1 to 10 µM.

`O=C(Nc1cn(C(=O)c2c(Cl)cccc2Cl)nc1C(=O)N1CCNCC1)c1c(Cl)cccc1Cl` [Compound 7] registered an IC50 of 1 to 10 µM.

Compound `O=C(NC1CCNCC1)c1nn(S(=O)(=O)c2cc(C(F)(F)F)ccc2Cl)cc1NC(=O)c1c(Cl)cccc1Cl` [Compound 26] came in with an IC50 of 50 to 300 µM.

`O=C(NC1CCNCC1)c1nn(S(=O)(=O)c2cccc(Cl)c2)cc1NC(=O)c1c(Cl)cccc1Cl` [Compound 24] gave an IC50 of 50 to 300 µM.

Consider `O=C(NC1CCNCC1)c1nn(S(=O)(=O)c2ccc(OCCCN3C(=O)c4ccccc4C3=O)cc2)cc1NC(=O)c1c(Cl)cccc1Cl` [Compound 30, 4-(2,6-dichlorobenzamido)-1-(4-(3-(1,3-dioxoisoindolin-2-yl)propoxy)phenylsulfonyl)-N-(piperidin-4-yl)-1H-pyrazole-3-carboxamide], for which the IC50 fell in the range of 1 to 10 µM.

As to `O=C(NC1CCNCC1)c1nn(C(=O)Nc2ccc(Cl)cc2)cc1NC(=O)c1c(Cl)cccc1Cl` [Compound 35], the 50% inhibitory concentration (IC50) lay in the range of 50 to 300 µM.

With `O=C(NC1C2CNCC21)c1nn(C(=O)c2c(Cl)cccc2Cl)cc1NC(=O)c1c(Cl)cccc1Cl` (stereo not shown) [Compound 13], the IC50 fell in the range of 1 to 10 µM.

Regarding `NCCCOc1ccc(S(=O)(=O)n2cc(NC(=O)c3c(Cl)cccc3Cl)c(C(=O)NC3CCNCC3)n2)cc1` [Compound 34, 1-(4-(3-aminopropoxy)phenylsulfonyl)-4-(2,6-dichlorobenzamido)-N-(piperidin-4-yl)-1H-pyrazole-3-carboxamide], the IC50 was 50 to 300 µM.

As for `O=C(NC1CNC1)c1nn(C(=O)c2c(Cl)cccc2Cl)cc1NC(=O)c1c(Cl)cccc1Cl` [Compound 17], the IC50 was 10 to 50 µM.

Still in this test, the particulars now being: Table 2, method of Example 2; read-out: BRISC IC50 μM Range.
On to `Cc1ncsc1-c1ccc(CNC(=O)[C@@H]2C[C@H](O)CN2C(=O)[C@@H](NC(=O)COCCOCCOCCn2cc(CCCCOc3ccc(S(=O)(=O)n4cc(NC(=O)c5c(Cl)cccc5Cl)c(C(=O)NC5CCNCC5)n4)cc3)nn2)C(C)(C)C)cc1` [Compound 43, 4-(2,6-dichlorobenzamido)-1-(4-(4-(1-((S)-13-((2S,4S)-4-hydroxy-2-(4-(4-methylthiazol-5-yl)benzylcarbamoyl)pyrrolidine-1-carbonyl)-14,14-dimethyl-11-oxo-3,6,9-trioxa-12-azapentadecyl)-1H-1,2,3-triazol-4-yl)butoxy)phenylsulfonyl)-N-(piperidin-4-yl)-1H-pyrazole-3-carboxamide], for which the IC50 fell in the range of 0.1 to 1 µM.
